Test results taken from patent US11479601B2, “Antibodies specific to Sonic Hedgehog and method of use thereof” (The Regents of the University of California, priority 2016, dated 2022).
“Also recorded” adds a separate entry of the source.

What was measured:
advanced-stage SCLC = conditions: cisplatin/etoposide with or without vismodegib, first line; cited from earlier work
Shh gene expression = Shh gene expression by qPCR in drug-treated A549 cells; type: cell-based, human
Method: RNA from unsorted cells was extracted with Qiagen Rneasy® Minikit (Quiagen), according to manufacturer instructions. RNA from sorted cells was extracted with Arcturus PicoPure RNA Isolation Kit (Life technologies). cDNA was then synthesized with iScript cDNA Synthesis Kit (Bio-Rad), according to manufacturer instructions. Commercial primers for Shh gene were obtained from Origen. Quantitative PCR was performed on Applied Biosystems' 7900HT Fast Real-Time PCR System, with triplicate for each gene analysis. Gene expression analysis was calculated with deltaCT method, with normalization with endogenous control (18s gene) (normalized gene expression level=2^−deltaCT(test gene)−deltaCT(18s)). For ddPCR, droplets creation, PCR and results analysis were performed according to manufacturer instructions (BioRad, QX100 ddPCR System, Quantasoft software). Results of ddPCR were expressed as FAM concentrations (copies/μl). RNA from unsorted cells was extracted with Qiagen's RNeasy Mini kit (Qiagen) according to the manufacturer's instructions. […] Quantitative RT-PCR (qRT-PCR) was performed on an Applied Biosystems 7900HT Fast Real-Time PCR System, in triplicate for each sample. Gene expression analysis was calculated with the delta-deltaCT method normalized to an endogenous control (18S gene). […] Results of ddPCR were expressed as FAM concentrations (copies/0).

A549 cells [1] = assay: Proliferation (MTS) and migration/wound healing assay on A549 cells; type: cell-based, human; conditions: GDC0449
Method: Proliferation assay was performed by MTS assay (CellTiter 96, Promega), according to manufacturer instructions. […] Migration assay was performed by wound healing assay. Monolayers of cells were: cultured, scratched, treated with media containing proteins and/or drugs at different concentrations: Shh protein, DMSO, and GDC0449, and recorded 0 and 24, 72 and 96 hours after treatment. MTS proliferation assays were performed (CellTiterGlo 96, Promega) according to the manufacturer's instructions. […] Wound healing assays were performed to study cell migration. Monolayers of cells were cultured, scratched, treated with media containing proteins and/or drugs at different concentrations: Shh protein, DMSO, and GDC0449-recorded at 0, 24, 72 and 96 hours after treatment.

[2] = tested on: most chemo-resistant NSCLC cell lines; conditions: previous study; cited from earlier work
[3] = tested on: Shh+ cells in A549 xenografts; assay: Shh rate in A549 xenografts of drug-treated nude mice; type: in vivo
Method: For xenograft formation, female nude mice, 5 to 10 weeks old, were injected subcutaneously (SC) with 10 million A549 cells in the dorsal area in a volume of […]. For SC inoculation of sorted cells, 1,500 cells of A549 Shh+ or Shh− cells were injected in a volume of […]. For intra-veinous injection of sorted cells, 1,000 cells of A549 Shh+ or Shh− cells were injected in the tail vein. For the in vivo treatment assay, after xenograft formation, animals were injected intravenously with cisplatin (10 mg/kg weekly), docetaxel (10 mg/kg twice a week) or vehicle, and intraperitoneally with GDC0449 (20 mg/kg daily) or vehicle. Each group consisted in 4-5 mice. Tumor size was determined twice a week, and tumor volumes were calculated using width (x) and length (y) (x^2y/2, where x<y). Tumors were collected after mice euthanasia, and cell dissociation was performed as for fresh human samples (cf supra). Flow cytometry and FACS were done as described supra. All animals were cared in accord with University of California San Francisco (UCSF) guidelines.
For xenograft formation, 5-10 week-old female nude mice, were injected subcutaneously (SC) with 10 million A549 cells in the dorsal area in a volume of 100 μl. […] Tumor size was determined twice a week, and tumor volumes were calculated using width (x) and length (y) (x^2y/2, where x<y). […]

Shh+ cells (A549) = assay: Shh rate by flow cytometry in drug-treated A549 cells; type: cell-based, human
Method: FACS (1:40). The secondary antibody was a donkey anti-mouse FITC-linked antibody (ab97029, 1:100, Abcam). For cell analysis after treatment assays (chemotherapy or GDC0449), a dead cell marker (SytoxRed, Invitrogen) was also used. For human fresh samples, an anti-CD45 APC-linked antibody (ab28106, 1:100, Abcam), and a dead cells marker (SytoxRed, Invitrogen) were added. For staining of stable transfected cell lines, mouse anti-HA antibody (Abcam, 1:100) and rabbit anti-FLAG antibody (Cell Signaling; 1:400) were used. Corresponding secondary antibodies were donkey anti-mouse AlexaFluor647 (Invitrogen, 1:1000) and donkey anti-rabbit AlexFluor594 (Invitrogen, 1:1000) antibodies. Flow cytometry analyses were performed on AccuriC6 flow cytometer (BD Biosciences), and FACS on FACSAria II (BD Biosciences). Flow analyses were based at least on 200,000 cells, and each test was made at least in triplicate. For all experiments, a negative control with cells processed without primary antibody was used. Sorted cells (Shh+ and Shh− cells) were collected on fresh media, and seeded on culture plates or freezed at −80° C. according to further analyses. Flow cytometry analysis was performed without membrane permeabilization prior to labeling the cells, unless otherwise indicated (e.g., FIG. 1D). Cisplatin was purchased from Sigma, and freshly reconstituted in PBS (2 g/1). Docetaxel was purchased from Tocris Bioscience, reconstituted in DMSO (5 g/1 stock dilution at −20° C.; further dilution in fresh culture medium) for in vitro assays, or reconstituted in ethanol/polysorbate 80 (1:1; 5 g/1 stock dilution at −20° C.; further dilution in PBS) for in vivo assays. GDC0449 was purchased from Selleck Chemicals, and reconstituted in DMSO (30 mM stock dilution). Shh human recombinant protein was obtained from EBioscience, and used at 1200 ng/ml. The mouse Shh-C-terminal antibody (mentioned above) was used for flow cytometry and FACS (1:40). The secondary antibody was a donkey anti-mouse FITC-linked antibody (ab97029, 1:100, Abcam). For cell analysis after treatment assays (chemotherapy or GDC0449), a marker for dead cells (SytoxRed®, Invitrogen) was also used. For fresh human samples, an anti-CD45 APC-linked antibody (ab28106, 1:100, Abcam) was added, and a marker for dead cells (SytoxRed®, Invitrogen). For staining of stable transfected cell lines, a mouse anti-HA antibody (Abcam, 1:100) and a rabbit anti-FLAG antibody (Cell Signaling; 1:400) were used. Corresponding secondary antibodies were donkey anti-mouse AlexaFluor647 (Invitrogen, 1:1 000) and donkey anti-rabbit AlexFluor594 (Invitrogen, 1:1 000). Flow cytometry analyses were performed on an AccuriC6 flow cytometer (BD Biosciences), and FACS on a FACSAria II (BD Biosciences). […]

A549 cells [4] = assay: Tumor formation after inoculation of GDC0449 pre-treated A549 cells; type: in vivo, nude mice; conditions: A549 cells pre-treated with 40 μM GDC0449, 1 million cells subcutaneous, versus DMSO pre-treated
Source text: Then, nude mice were inoculated (sub-cutaneous) with 1 million treated cells (still adherent to the culture flask after treatment with GDC0449). […] Then, nude mice were inoculated subcutaneously with 1 million treated cells (still adherent to the culture flask after treatment with GDC0449).

A549 cells [5] = assay: Viability of A549 cells treated with Shh antibodies ± GLI inhibitor 249C; type: cell-based, human; conditions: Homo sapiens, A549
Method: The effect of the C-terminal Shh antibodies from clones 2G4 and 2D9 on the viability of A549 cells was determined. A549 cells were exposed to increasing concentrations of the C-terminal Shh antibodies (2G4, 2D9), or antibodies against the N-terminal portion of Shh protein (6D3, 2E1), and the effective dose (ED50) was determined (assay 1: FIG. 16A; assay 2: FIG. 16B). […] Possibly due to the fact that very few cells express full-length Shh on the cell surface, the cytotoxic effect of the C-terminal Shh antibodies was not as potent as the cytotoxic effect of the N-terminal antibodies.
Next, the cytotoxicity of the C-terminal Shh antibodies was tested when the antibodies were used in conjunction with a small-molecule inhibitor of GLI zinc-finger transcription factor signaling, 249C (4-(5-chlorofuran-2-yl)-1,3-bis(2,4-difluorophenyl)-5-methyl-N-((4-methylmorpholin-2-yl)methyl)-4,5-dihydro-1H-pyrazole-5-carboxamide; Compound 135 above). A549 cells were exposed to varying concentrations of the C-terminal antibodies (2G4, 2D9) or the N-terminal antibodies (6D3, 2E1), in the presence or absence of a very low dose (40 nM) of 249C. (The IC50 of 249C in A549 cells is ˜70 nM.)

[6] = molecular target: full-length human Sonic Hedgehog (Shh) expressed in cells (endogenous, or transfected with pCMV-Shh) (human) (UniProt Q15465); assay: flow cytometry of ground up permeabilised A549 xenograft tumour cells from control IgG-treated mice
[7] = molecular target: full-length human Sonic Hedgehog (Shh) expressed in cells (endogenous, or transfected with pCMV-Shh) (human) (UniProt Q15465); assay: flow cytometry, A549 cells transfected with pCMV-Shh
[8] = molecular target: full-length human Sonic Hedgehog (Shh) expressed in cells (endogenous, or transfected with pCMV-Shh) (human) (UniProt Q15465); assay: FACS of non-permeabilised A549 cells
[9] = molecular target: full-length human Sonic Hedgehog (Shh) expressed in cells (endogenous, or transfected with pCMV-Shh) (human) (UniProt Q15465); assay: flow cytometry, untransfected cells (No transfection)
[10] = molecular target: full-length human Sonic Hedgehog (Shh) expressed in cells (endogenous, or transfected with pCMV-Shh) (human) (UniProt Q15465); assay: flow cytometry, cells transfected with full-length Shh
[11] = molecular target: full-length human Sonic Hedgehog (Shh) expressed in cells (endogenous, or transfected with pCMV-Shh) (human) (UniProt Q15465); assay: flow cytometry, A549 + vector control (endogenous Shh)
[12] = molecular target: full-length human Sonic Hedgehog (Shh) expressed in cells (endogenous, or transfected with pCMV-Shh) (human) (UniProt Q15465); assay: FACS of non-permeabilised A549 cells labeled with the antibody; Total Cells Sorted 19 million, % Shh+ Cells 0.06%
advanced SCLC = conditions: sonidegib in addition to cisplatin/etoposide; cited from earlier work
A549 Shh− cells = assay: Migration/wound healing assay on A549 Shh− cells; type: cell-based, human; conditions: Shh recombinant protein 1200 ng/mL, day 3
Method: Migration assay was performed by wound healing assay. Monolayers of cells were: cultured, scratched, treated with media containing proteins and/or drugs at different concentrations: Shh protein, DMSO, and GDC0449, and recorded 0 and 24, 72 and 96 hours after treatment.
Wound healing assays were performed to study cell migration. Monolayers of cells were cultured, scratched, treated with media containing proteins and/or drugs at different concentrations: Shh protein, DMSO, and GDC0449-recorded at 0, 24, 72 and 96 hours after treatment.

[13] = molecular target: T1, recombinant full-length Shh protein (human, UniProt Q15465 24-462, limits assumed); assay: BLI (Octet), response (nm) against Shh conc (nM), four points between about 28 and 165 nM, fitted line, R2 = 0.97
T1 construct: Printed only as 'full-length recombinant Shh protein'; also called full-length recombinant Shh protein

[14] = molecular target: T1, recombinant full-length Shh protein; assay: BLI (Octet), response (nm) against Shh conc (nM), four points between about 28 and 165 nM, fitted line, R2 = 0.98

Molecule: CS(=O)(=O)c1ccc(C(=O)Nc2ccc(Cl)c(-c3ccccn3)c2)c(Cl)c1 [GDC0449]
- response rate, PFS or OS (advanced-stage SCLC): No effect
- Shh gene expression (qPCR) (Shh gene expression; post-GDC0449 treatment, 20 μM and 40 μM): dramatic decrease
- cell proliferation and migration (A549 cells [1]): inhibition of cell proliferation and migration
- effect with cisplatin in vitro [2]: synergistic effect
- Shh rate in A549 xenografts, sequential assay ([3]; cisplatin 10 mg/kg IV weekly, then GDC0449 20 mg/kg IP daily): significant reduction
- Shh rate in A549 xenografts, combination treatment compared to chemotherapy alone ([3]; docetaxel 10 mg/kg twice a week plus GDC0449 20 mg/kg IP daily): significant reduction
- Shh rate post-chemotherapy combined with GDC0449 compared to chemotherapy alone (Shh+ cells (A549); A549 cells, cisplatin or docetaxel plus GDC0449 40 μM): significant decrease; also recorded: decreased significantly
- Shh+ cells in pre-inoculated A549 cells (Shh+ cells (A549); GDC0449 40 μM, day 3): 0%
- tumor formation from pre-treated cells (A549 cells [4]): completely inhibited

Molecule: N.N.[Cl][Pt][Cl] [cisplatin]
- Shh gene expression (qPCR) (Shh gene expression; after cisplatin treatment): elevation
- Shh rate, Shh+ cells of live cells (Shh+ cells (A549); A549 cells, cisplatin 1 mM, 72 h): 5%
- Shh rate with escalating doses (Shh+ cells (A549); NSCLC cells, escalating doses of cisplatin): absolute augmentation

Molecule: CN1CCOC(CNC(=O)C2(C)C(c3ccc(Cl)o3)C(c3ccc(F)cc3F)=NN2c2ccc(F)cc2F)C1 (stereo not drawn) [Ab 249C, 4-(5-chlorofuran-2-yl)-1,3-bis(2,4-difluorophenyl)-5-methyl-N-((4-methylmorpholin-2-yl)methyl)-4,5-dihydro-1H-pyrazole-5-carboxamide]
- IC50 (A549 cells [5]): ~70 nM

Molecule: commercial C-terminal Shh antibody (Abcam ab53281, rabbit)
- % Shh-labeled cells [6]: 80%
- % of cells labeled [7]: 5.1%
- % Shh+ cells sorted [8]: 0.06%
- % of cells labeled [9]: 0.11%
- % of cells labeled [10]: 2.45%
- % of cells labeled [11]: 1%
- # Shh+ Cells [12]: 3810 cells

Molecule: Cc1c(C(=O)Nc2ccc(N3C[C@@H](C)O[C@@H](C)C3)nc2)cccc1-c1ccc(OC(F)(F)F)cc1 [sonidegib, N-[6-[(2S,6R)-2,6-Dimethylmorpholin-4-yl]pyridin-3-yl]-2-methyl-3-[4-(trifluoromethoxy)phenyl]benzamide]
- response rate (advanced SCLC): 79%

Molecule: human recombinant N-terminal Shh peptide: Shh human recombinant protein from eBioscience, used at 1200 ng/ml
- augmentation in the migration rate (A549 Shh− cells): 15%

B1: Ab 1C11-2D9 (antibody, mouse IgG1, kappa, V domains shown)
VH: EVKLVESGGGLVKPGGSLKLSCAASGFTFSSYTMSWVRQTPAKRLEWVATISSGGGNTYYPDSVKGRFTISRDNARNTLYLQMSSLRSEDTAMYYCARDYRSLFAYWGQGTLVTVSA
VL: QIVLTQSPAIMSASPGEKVTITCSASSSVSYMHWFQQKPGTSPKLWIYSTSNLASGVPARFSGSGSGTSYSLTISRMEAEDAATYYCQQRSSYPFTFGSGTKLEIKR
notes: also called clone 2D9; Ab11-2D9
- Kd [13]: 4.6 nM

B2: Ab 1C11-2G4 (antibody, IgG1, V domains shown)
VH: EVKLVESGGGLVKPGGSLKLSCAASGFTFSSYTMSWVRQTPAKRLEWVATISSGGGNTYYPDSVKGRFTISRDNARNTLYLQMSSLRSEDTAMYYCARDYRSLFAYWGQGTLVTVSA
VL: QIVLTQSPAIMSASPGEKVTITCSASSSVSYMHWFQQKPGTSPKLWIYSTSNLASGVPARFSGSGSGTSYSLTISRMEAEDAATYYCQQRSSYPFTFGSGTKLEIK
notes: also called clone 2G4; Ab 2G4
- Kd [14]: 4 nM
